# Values of other authors in paper PMC8513935.
# Assays:
# [1] = derived by the authors as gas->solvent minus gas->water (a hypothetical dry solvent; the ESI), not a two-phase measurement
# [2] = log P octanol/water from commercial databases, averaged (the ESI); settings: Octanol (wet), 25 C
# [3] = experimental, compiled by the authors from the literature (the ESI cites the sources)
compound,measurement,setting,value
CCC(C)=O,"log K of transfer, water to solvent","[1]; 1,2-Dichloroethane, 25 C",0.92 log10 K
same,"log K of transfer, water to solvent","[1]; 2-Methylpropan-1-ol, 25 C",0.27 log10 K
same,"log K of transfer, water to solvent","[1]; 2-Methylpropan-2-ol, 25 C",0.39 log10 K
same,"log K of transfer, water to solvent","[1]; 3-Methylbutan-1-ol, 25 C",0.29 log10 K
same,"log K of transfer, water to solvent","[1]; Acetone, 25 C",0.7 log10 K
same,"log K of transfer, water to solvent","[1]; Acetonitrile, 25 C",0.76 log10 K
same,"log K of transfer, water to solvent","[1]; Benzene, 25 C",0.55 log10 K
same,"log K of transfer, water to solvent","[1]; Butan-1-ol, 25 C",0.3 log10 K
same,"log K of transfer, water to solvent","[1]; Butan-2-ol, 25 C",0.33 log10 K
same,"log K of transfer, water to solvent","[1]; Butanone, 25 C",0.64 log10 K
same,"log K of transfer, water to solvent","[1]; Butyronitrile, 25 C",0.66 log10 K
same,"log K of transfer, water to solvent","[1]; CCl4, 25 C",0.27 log10 K
same,"log K of transfer, water to solvent","[1]; Chlorobenzene, 25 C",0.57 log10 K
same,"log K of transfer, water to solvent","[1]; Chloroform, 25 C",1.15 log10 K
same,"log K of transfer, water to solvent","[1]; Cyclohexane, 25 C",-0.246 log10 K
same,"log K of transfer, water to solvent","[1]; Cyclohexanone, 25 C",0.574 log10 K
same,"log K of transfer, water to solvent","[1]; Di-n-butyl ether, 25 C",0.00999 log10 K
same,"log K of transfer, water to solvent","[1]; Dichloromethane, 25 C",1.14 log10 K
same,"log K of transfer, water to solvent","[1]; Diethyl Ether, 25 C",0.31 log10 K
same,"log K of transfer, water to solvent","[1]; Ethanol, 25 C",0.44 log10 K
same,"log K of transfer, water to solvent","[1]; Hexadecane, 25 C",-0.433 log10 K
same,"log K of transfer, water to solvent","[1]; Hexan-1-ol, 25 C",0.122 log10 K
same,"log K of transfer, water to solvent","[1]; Hexane, 25 C",-0.23 log10 K
same,"log K of transfer, water to solvent","[1]; Methanol, 25 C",0.62 log10 K
same,"log K of transfer, water to solvent","[1]; Octan-1-ol(dry), 25 C",0.05 log10 K
same,"log K of transfer, water to solvent","[1]; Pentan-1-ol, 25 C",0.13 log10 K
same,"log K of transfer, water to solvent","[1]; Perfluoroalkane, 25 C",-0.957 log10 K
same,"log K of transfer, water to solvent","[1]; Propan-1-ol, 25 C",0.35 log10 K
same,"log K of transfer, water to solvent","[1]; Propan-2-ol, 25 C",0.27 log10 K
same,"log K of transfer, water to solvent","[1]; Tetrahydrofuran, 25 C",0.61 log10 K
same,"log K of transfer, water to solvent","[1]; Toluene, 25 C",0.41 log10 K
same,"log K of transfer, water to solvent",[2],0.29 log10 K
same,"log K of transfer, gas to solvent","[3]; 1,2-Dichloroethane, 25 C",3.64 log10 K
same,"log K of transfer, gas to solvent","[3]; 2-Methylpropan-1-ol, 25 C",2.99 log10 K
same,"log K of transfer, gas to solvent","[3]; 2-Methylpropan-2-ol, 25 C",3.11 log10 K
same,"log K of transfer, gas to solvent","[3]; 3-Methylbutan-1-ol, 25 C",3.01 log10 K
same,"log K of transfer, gas to solvent","[3]; Acetonitrile, 25 C",3.48 log10 K
same,"log K of transfer, gas to solvent","[3]; Benzene, 25 C",3.27 log10 K
same,"log K of transfer, gas to solvent","[3]; Butan-1-ol, 25 C",3.02 log10 K
same,"log K of transfer, gas to solvent","[3]; Butan-2-ol, 25 C",3.05 log10 K
same,"log K of transfer, gas to solvent","[3]; Butanone, 25 C",3.36 log10 K
same,"log K of transfer, gas to solvent","[3]; Butyronitrile, 25 C",3.38 log10 K
same,"log K of transfer, gas to solvent","[3]; CCl4, 25 C",2.99 log10 K
same,"log K of transfer, gas to solvent","[3]; Chlorobenzene, 25 C",3.29 log10 K
same,"log K of transfer, gas to solvent","[3]; Chloroform, 25 C",3.87 log10 K
same,"log K of transfer, gas to solvent","[3]; Cyclohexane, 25 C",2.47 log10 K
same,"log K of transfer, gas to solvent","[3]; Cyclohexanone, 25 C",3.29 log10 K
same,"log K of transfer, gas to solvent","[3]; Di-n-butyl ether, 25 C",2.73 log10 K
same,"log K of transfer, gas to solvent","[3]; Dichloromethane, 25 C",3.86 log10 K
same,"log K of transfer, gas to solvent","[3]; Diethyl Ether, 25 C",3.03 log10 K
same,"log K of transfer, gas to solvent","[3]; Ethanol, 25 C",3.16 log10 K
same,"log K of transfer, gas to solvent","[3]; Hexadecane, 25 C",2.29 log10 K
same,"log K of transfer, gas to solvent","[3]; Hexan-1-ol, 25 C",2.84 log10 K
same,"log K of transfer, gas to solvent","[3]; Hexane, 25 C",2.49 log10 K
same,"log K of transfer, gas to solvent","[3]; Methanol, 25 C",3.34 log10 K
same,"log K of transfer, gas to solvent","[3]; Octan-1-ol, 25 C",2.77 log10 K
same,"log K of transfer, gas to solvent","[3]; Pentan-1-ol, 25 C",2.85 log10 K
same,"log K of transfer, gas to solvent","[3]; Perfluoroalkane, 25 C",1.76 log10 K
same,"log K of transfer, gas to solvent","[3]; Propan-1-ol, 25 C",3.07 log10 K
same,"log K of transfer, gas to solvent","[3]; Propan-2-ol, 25 C",2.99 log10 K
same,"log K of transfer, gas to solvent","[3]; Propanone, 25 C",3.42 log10 K
same,"log K of transfer, gas to solvent","[3]; Tetrahydrofuran, 25 C",3.33 log10 K
same,"log K of transfer, gas to solvent","[3]; Toluene, 25 C",3.13 log10 K
same,"log K of transfer, gas to solvent","[3]; Water, 25 C",2.72 log10 K
CC(C)(C)c1ccccc1,"log K of transfer, water to solvent","[1]; Hexadecane, 25 C",4.09 log10 K
same,"log K of transfer, water to solvent","[1]; Methanol, 25 C",3.73 log10 K
same,"log K of transfer, water to solvent","[1]; Propan-2-ol, 25 C",3.78 log10 K
same,"log K of transfer, water to solvent","[1]; Tetrahydrofuran, 25 C",4.77 log10 K
same,"log K of transfer, water to solvent",[2],4.11 log10 K
same,"log K of transfer, gas to solvent","[3]; Hexadecane, 25 C",4.41 log10 K
same,"log K of transfer, gas to solvent","[3]; Methanol, 25 C",4.05 log10 K
same,"log K of transfer, gas to solvent","[3]; Propan-2-ol, 25 C",4.1 log10 K
same,"log K of transfer, gas to solvent","[3]; Tetrahydrofuran, 25 C",5.09 log10 K
same,"log K of transfer, gas to solvent","[3]; Water, 25 C",0.32 log10 K
